This is an account of results in patent US8697694B2, “Substituted pyridine and pyrimidine derivatives and their use in treating viral infections” (priority 2008, dated 2014).

The term EC90 denotes the concentration at which the effect reaches the 90% level.

The test system of the first assay is HCV replicon cells. In words: Cell-based HCV replicon assay (replicon RNA level by real time PCR, Taqman). The conditions noted are these: Hepatitis C virus, 72 h, HCV replicon cells, harvested day 3, replicon RNA by real time PCR; given as number; read-out: EC90 (μM) range. In a few lines:
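HCV replicon cells treated 3 days with 10 serial 2-fold compound dilutions (top 25 μM to 1 μM; 0.5% DMSO, 10% FBS). Replicon RNA quantified by multiplex Taqman RT-PCR (NS5B amplicon, GAPDH control); EC50 and EC90 = concentrations giving ΔCT of 1 and 3.2 over baseline.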
Regarding `Cc1nc(NCC2CC2)nc(N[C@@H]2C[C@H](CO)[C@@H](O)[C@H]2O)c1-c1cc2cc(OCC3CC3)nc(C)c2o1` [Example 42], the EC90 is 0.3 µM.

Staying with this assay, now noted: Hepatitis C virus, 72 h, HCV replicon cells, harvested day 3, replicon RNA by real time PCR; reported as range class; read-out: EC90 (μM) range.
For `Nc1nc(N[C@@H]2C[C@H](CO)[C@@H](O)[C@H]2O)c(-c2ncco2)c(-c2ncco2)n1` [Example 107], the EC90 is over 5 µM.

Consider `Nc1nc(Cl)c(-c2cncs2)c(N[C@@H]2C[C@H](CO)[C@@H](O)[C@H]2O)n1` [Example 163], for which the EC90 was over 5 µM. Turning to `Nc1nc(Cl)c(-c2nc3c(Cl)cccc3s2)c(N[C@@H]2C[C@H](CO)[C@@H](O)[C@H]2O)n1` [Example 183], the EC90 lay in the range of 0.5 to 5 µM.

The same assay, now with this note: Hepatitis C virus, 72 h, HCV replicon cells, harvested on day 3, replicon RNA by real time PCR; calculated EC90 reported as range class; read-out: EC90 (μM) range.
As to `CCOCCNc1nc(Cl)c(-c2cc3cc(CC)ncc3o2)c(N[C@@H]2C[C@H](CO)[C@@H](O)[C@H]2O)n1` [Example 512], the EC90 was under 0.5 µM. The same measure, in the same setting: under `CC(C)(C)Nc1nc(Cl)c(-c2nc3ccccc3s2)c(N[C@@H]2C[C@H](CO)[C@@H](O)[C@H]2O)n1` [Example 428] stands under 0.5 µM; under `CO[C@H](C)CNc1nc(Cl)c(-c2nc3ccccc3s2)c(N[C@@H]2C[C@H](CO)[C@@H](O)[C@H]2O)n1` [Example 230], under 0.5 µM; under `Cc1cc(CNc2nc(C)c(-c3nc4ccccc4s3)c(N[C@@H]3C[C@H](CO)[C@@H](O)[C@H]3O)n2)on1` [Example 493], under 0.5 µM. Consider `COc1ccc(CNc2nc(C)c(-c3nc4ccccc4s3)c(N[C@@H]3C[C@H](CO)[C@@H](O)[C@H]3O)n2)cc1OC` [Example 709], for which the EC90 was under 0.5 µM.

As to `OC[C@H]1C[C@@H](Nc2nc(NCc3ccccc3)nc(Cl)c2-c2nc3ccccc3s2)[C@H](O)[C@@H]1O` [Example 430], the EC90 was under 0.5 µM.

Staying with this assay, now noted: Hepatitis C virus, 72 h, HCV replicon cells, replicon RNA level by real time PCR (Taqman), harvested on day 3; calculated EC90 reported as range class; read-out: EC90 (μM) range.
Take `Cc1nc(N[C@H](C)C(C)(C)C)nc(N[C@@H]2C[C@H](CO)[C@@H](O)[C@H]2O)c1-c1nc2cnccc2s1` [Example 1308]: the EC90 is 0.5 to 5 µM. On to `Cc1ccc([C@@H](C)Nc2nc(C)c(-c3nc4c(C)nccc4s3)c(N[C@@H]3C[C@H](CO)[C@@H](O)[C@H]3O)n2)cc1` [Example 1320], for which the EC90 is under 0.5 µM. Consider `Cc1nc(Nc2ccccc2)nc(N[C@@H]2C[C@H](CO)[C@@H](O)[C@H]2O)c1-c1nc2ccccc2s1` [Example 1007], for which the EC90 was 0.5 to 5 µM. As for `Cc1nc(NCCOC(F)(F)F)nc(N[C@@H]2C[C@H](CO)[C@@H](O)[C@H]2O)c1-c1nc2ccccc2s1` [Example 1066], the EC90 is under 0.5 µM.

`CC(C)(C)CNc1nc(CF)c(-c2nc3ccccc3s2)c(N[C@@H]2C[C@H](CO)[C@@H](O)[C@H]2O)n1` [Example 1120]: the EC90 is over 5 µM. Turning to `Cc1nc(NCC(C)(C)C)nc(N2CCC[C@H]2CO)c1-c1nc2ccccc2s1` [Example 1223], the EC90 is over 5 µM.

In the case of `CCOc1nc(C)cc2cc(-c3c(C)nc(NCC4CC4)nc3N[C@@H]3C[C@H](CO)[C@@H](O)[C@H]3O)oc12` [Example 1238], the EC90 is 0.5 to 5 µM.

Take `Cc1nc(NCc2cccc(C(=O)O)c2)nc(N[C@@H]2C[C@H](CO)[C@@H](O)[C@H]2O)c1-c1nc2ccccc2s1` [Example 1219]: the EC90 was over 5 µM.

Still in this assay, the particulars now being: Hepatitis C virus, 72 h, HCV replicon cells, replicon RNA level by real time PCR, harvested day 3; read-out: EC90 (μM) range.
Turning to `Cc1nc(NCC2CC2)nc(N[C@H]2[C@H](O)CC[C@@H]2O)c1-c1nc2ccccc2s1` [Example 1627], the EC90 was over 5 µM. On to `Cc1nc(N[C@@H](c2ccccc2)C(F)(F)F)nc(N[C@@H]2C[C@H](CO)[C@@H](O)[C@H]2O)c1-c1nc2c(C)nccc2s1` [Example 1353], for which the EC90 was under 0.5 µM. As for `Cc1nc(NCC(F)(F)F)nc(N[C@@H]2C[C@H](CS(C)(=O)=O)[C@@H](O)[C@H]2O)c1-c1nc2ccccc2s1` [Example 1357], the EC90 is under 0.5 µM.

Take `Cc1nc(NCC(F)(F)F)nc(N[C@@H]2C[C@H](CNC(=O)CO)[C@@H](O)[C@H]2O)c1-c1nc2ccccc2s1` [Example 1508]: the EC90 lay in the range of 0.5 to 5 µM. Take `Cc1nc(N[C@H](C)c2ccc(OC(F)(F)F)cc2)nc(N[C@@H]2C[C@H](CO)[C@@H](O)[C@@]2(C)O)c1-c1nc2cnccc2s1` [Example 1397]: the EC90 was under 0.5 µM.
